Results on 16 molecules are retold here after US12679849B2, “Macrocyclic compounds as STING agonists” (LUPIN LIMITED, priority 2019, dated 2026).

In the experiment the target is T1, Human STING (Homo sapiens, UniProt Q86WV6, G230A/H232R/R293Q/R71H).
T1 construct: using human THP1-Blue™ ISG SEAP based reporter cell line (Invivogen); host or cells: THP1-Blue ISG (human monocytic THP-1 derived SEAP reporter line)
T1 sequence (Q86WV6 whole entry R71H/G230A/H232R/R293Q): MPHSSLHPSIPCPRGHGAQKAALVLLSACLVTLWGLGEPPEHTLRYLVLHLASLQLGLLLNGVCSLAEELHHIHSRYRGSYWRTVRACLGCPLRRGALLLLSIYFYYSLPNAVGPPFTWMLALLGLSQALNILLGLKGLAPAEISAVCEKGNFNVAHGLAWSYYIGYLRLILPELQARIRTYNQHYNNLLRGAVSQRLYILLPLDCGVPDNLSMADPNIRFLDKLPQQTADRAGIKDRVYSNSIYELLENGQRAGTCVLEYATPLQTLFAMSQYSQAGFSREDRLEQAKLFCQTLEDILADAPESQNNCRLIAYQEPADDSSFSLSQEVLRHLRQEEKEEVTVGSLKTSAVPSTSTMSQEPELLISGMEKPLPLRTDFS
In words: Stimulation of human STING signalling in THP1-Blue ISG SEAP reporter cell line. Type of experiment: cell-based. Particulars: THP1-Blue ISG cells, 18-20 hours incubation. The procedure: Stimulation of Human STING Signalling in THP1 Cell Line
Compounds were tested for their STING activation potential using human THP1-Blue™ ISG SEAP based reporter cell line (Invivogen). Briefly, THP1-Blue ISG cells (100,000 cells/well) in 96 well plate were treated with varying concentrations of test and reference compounds and incubated at 37° C. with 5% CO2 for 18-20 hours. The control untreated cells were also set up. Post incubation, the cell supernatant was tested for SEAP (Secreted Embryonic Alkaline Phosphatase) activity using the QuantiBlue™ substrate reagent (Invivogen). The formation of blue coloured product was quantified by measuring absorbance at wavelength of 620 nm using PheraStar/Tecan reader. The average of duplicate readouts for each data point was plotted in GraphPad prism 6 against the concentration of test or reference compound to calculate EC50 value. The fold of SEAP induction or increase in luminescence at different data points was estimated against the un-stimulated cell control set.
One may read the EC50 as the concentration at which the effect is half-maximal. A higher EC50 goes with a less potent agent. As for `CCn1nc(C)cc1C(=O)Nc1nc2cc(C(N)=O)cc3c2n1C/C=C/Cn1c(NC(=O)c2cc(C)nn2CC)nc2cc(C(N)=O)cc(c21)OCC(n1ccnc1)CO3` [Compound 19, (E)-1,15-bis(1-ethyl-3-methyl-1H-pyrazole-5-carboxamido)-8-(1H-imidazol-1-yl)-8,9,16,19-tetrahydro-7H-6,10-dioxa-2,14,15a,19a-tetraazacyclopentadeca[3,2,1-cd:8,9,10-c′d′]diindene-4,12-dicarboxamide], the EC50 was 0.001 to 0.01 µM.

Take `CCn1nc(C)cc1C(=O)Nc1nc2cc(C(N)=O)cc3c2n1C/C=C/Cn1c(NC(=O)c2cc(C)nn2CC)nc2cc(C(N)=O)cc(c21)OCC(N1CCC(C#N)C1)CO3` (stereo not shown) [Compound 26, (E)-8-(3-cyanopyrrolidin-1-yl)-1,15-bis(1-ethyl-3-methyl-1H-pyrazole-5-carboxamido)-8,9,16,19-tetrahydro-7H-6,10-dioxa-2,14,15a,19a-tetraazacyclopentadeca[3,2,1-cd:8,9,10-c′d′]diindene-4,12-dicarboxamide]: the EC50 lay in the range of 0.001 to 0.01 µM.

Take `CCn1nc(C)cc1C(=O)Nc1nc2cc(C(N)=O)cc3c2n1C/C=C/Cn1c(NC(=O)c2cc(C)nn2CC)nc2cc(C(N)=O)cc(c21)OCC(CCN1CCOCC1)CO3` [Compound 13, (E)-1,15-bis(1-ethyl-3-methyl-1H-pyrazole-5-carboxamido)-8-(2-morpholinoethyl)-8,9,16,19-tetrahydro-7H-6,10-dioxa-2,14,15a,19a-tetraazacyclopentadeca[3,2,1-cd:8,9,10-c′d′]diindene-4,12-dicarboxamide]: the EC50 was 0.011 to 0.1 µM. To `CCn1nc(C)cc1C(=O)Nc1nc2cc(C(N)=O)cc3c2n1C/C=C/Cn1c(NC(=O)c2cc(C)nn2CC)nc2cc(C(N)=O)cc(c21)OCC(C1CCN(C)CC1)CO3` [Compound 9, (E)-1,15-bis(1-ethyl-3-methyl-1H-pyrazole-5-carboxamido)-8-(1-methylpiperidin-4-yl)-8,9,16,19-tetrahydro-7H-6,10-dioxa-2,14,15a,19a-tetraazacyclopentadeca[3,2,1-cd:8,9,10-c′d′]diindene-4,12-dicarboxamide] belongs 0.011 to 0.1 µM; to `CCn1nc(C)cc1C(=O)Nc1nc2cc(C(N)=O)cc3c2n1C/C=C/Cn1c(NC(=O)c2cc(C)nn2CC)nc2cc(C(N)=O)cc(c21)OCC(N1C[C@@H](C)O[C@@H](C)C1)CO3` [Compound 5, (E)-8-((2S,6R)-2,6-dimethylmorpholino)-1,15-bis(1-ethyl-3-methyl-1H-pyrazole-5-carboxamido)-8,9,16,19-tetrahydro-7H-6,10-dioxa-2,14,15a,19a-tetraazacyclopentadeca[3,2,1-cd:8,9,10-c′d′]diindene-4,12-dicarboxamide], 0.001 to 0.01 µM. To `CCn1nc(C)cc1C(=O)Nc1nc2cc(C(N)=O)cc3c2n1C/C=C/Cn1c(NC(=O)c2cc(C)nn2CC)nc2cc(C(N)=O)cc(c21)OCC(N1CC[C@H](O)C1)CO3` [Compound 11, (S,E)-1,15-bis(1-ethyl-3-methyl-1H-pyrazole-5-carboxamido)-8-(3-hydroxypyrrolidin-1-yl)-8,9,16,19-tetrahydro-7H-6,10-dioxa-2,14,15a,19a-tetraazacyclopentadeca[3,2,1-cd:8,9,10-c′d′]diindene-4,12-dicarboxamide] belongs 0.001 to 0.01 µM; to `CCn1nc(C)cc1C(=O)Nc1nc2cc(C(N)=O)cc3c2n1C/C=C/Cn1c(NC(=O)c2cc(C)nn2CCF)nc2cc(C(N)=O)cc(c21)OCC(N1CCOCC1)CO3` (stereo not shown) [Compound 17, (E)-15-(1-ethyl-3-methyl-1H-pyrazole-5-carboxamido)-1-(1-(2-fluoroethyl)-3-methyl-1H-pyrazole-5-carboxamido)-8-morpholino-8,9,16,19-tetrahydro-7H-6,10-dioxa-2,14,15a,19a-tetraazacyclopentadeca[3,2,1-cd:8,9,10-c′d′]diindene-4,12-dicarboxamide], 0.011 to 0.1 µM. `CCn1nc(C)cc1C(=O)Nc1nc2cc(C(N)=O)cc3c2n1C/C=C/Cn1c(NC(=O)c2cc(C)nn2CC)nc2cc(C(N)=O)cc(c21)OCC(c1ccccn1)CO3` [Compound 36, (E)-1,15-bis(1-ethyl-3-methyl-1H-pyrazole-5-carboxamido)-8-(pyridin-2-yl)-8,9,16,19-tetrahydro-7H-6,10-dioxa-2,14,15a,19a-tetraazacyclopentadeca[3,2,1-cd:8,9,10-c′d′]diindene-4,12-dicarboxamidexamide] returned an EC50 of 0.011 to 0.1 µM. In the case of `CCn1nc(C)cc1C(=O)Nc1nc2cc(C(N)=O)cc3c2n1C/C=C/Cn1c(NC(=O)c2cc(C)nn2CC)nc2cc(C(N)=O)cc(c21)O[C@H]1CN[C@@H](CO3)C1` [Compound 20, (33R,35R,E)-12,62-bis(1-ethyl-3-methyl-1H-pyrazole-5-carboxamido)-11H,61H-2,5-dioxa-1,6(7,1)-dibenzo[d]imidazola-3(3,5)-pyrrolidinacyclodecaphan-8-ene-15,65-dicarboxamide] it was 0.011 to 0.1 µM; in that of `CCn1nc(C)cc1C(=O)Nc1nc2cc(C(N)=O)cc3c2n1C/C=C/Cn1c(NC(=O)c2cc(C)nn2CC)nc2cc(C(N)=O)cc(c21)OCC(N1CCC(O)CC1)CO3` [Compound 22, (E)-1,15-bis(1-ethyl-3-methyl-1H-pyrazole-5-carboxamido)-8-(4-hydroxypiperidin-1-yl)-8,9,16,19-tetrahydro-7H-6,10-dioxa-2,14,15a,19a-tetraazacyclopentadeca[3,2,1-cd:8,9,10-c′d′]diindene-4,12-dicarboxamide], 0.011 to 0.1 µM. To `CCn1nc(C)cc1C(=O)Nc1nc2cc(C(N)=O)cc3c2n1C/C=C/Cn1c(NC(=O)c2cc(C)nn2CC)nc2cc(C(N)=O)cc(c21)OCC(N1CCOCC1)CO3` [Compound 3, (E)-1,15-bis(1-ethyl-3-methyl-1H-pyrazole-5-carboxamido)-8-morpholino-8,9,16,19-tetrahydro-7H-6,10-dioxa-2,14,15a,19a-tetraazacyclopentadeca[3,2,1-cd:8,9,10-c′d′]diindene-4,12-dicarboxamide] belongs 0.001 to 0.01 µM; to `CCn1nc(C)cc1C(=O)Nc1nc2cc(C(N)=O)cc3c2n1C/C=C/Cn1c(NC(=O)c2cc(C)nn2CC)nc2cc(C(N)=O)cc(c21)OCC(N1CCC(F)(F)CC1)CO3` [Compound 4, (E)-8-(4,4-difluoropiperidin-1-yl)-1,15-bis(1-ethyl-3-methyl-1H-pyrazole-5-carboxamido)-8,9,16,19-tetrahydro-7H-6,10-dioxa-2,14,15a,19a-tetraazacyclopentadeca[3,2,1-cd:8,9,10-c′d′]diindene-4,12-dicarboxamide], 0.011 to 0.1 µM. In the case of `CCn1nc(C)cc1C(=O)Nc1nc2cc(C(N)=O)cc3c2n1C/C=C/Cn1c(NC(=O)c2cc(C)nn2CC)nc2cc(C(N)=O)cc(c21)OCC(CN1CCOCC1)CO3` [Compound 16, (E)-1,15-bis(1-ethyl-3-methyl-1H-pyrazole-5-carboxamido)-8-(morpholinomethyl)-8,9,16,19-tetrahydro-7H-6,10-dioxa-2,14,15a,19a-tetraazacyclopentadeca[3,2,1-cd:8,9,10-c′d′]diindene-4,12-dicarboxamide] it was 0.011 to 0.1 µM.

Take `CCn1nc(C)cc1C(=O)Nc1nc2cc(C(N)=O)cc3c2n1C/C=C/Cn1c(NC(=O)c2cc(C)nn2CC)nc2cc(C(N)=O)cc(c21)OCC(N1CC[C@@H](OC)C1)CO3` [Compound 35, (R,E)-1,15-bis(1-ethyl-3-methyl-1H-pyrazole-5-carboxamido)-8-(3-methoxypyrrolidin-1-yl)-8,9,16,19-tetrahydro-7H-6,10-dioxa-2,14,15a,19a-tetraazacyclopentadeca[3,2,1-cd:8,9,10-c′d′]diindene-4,12-dicarboxamide]: the EC50 is 0.001 to 0.01 µM. In the case of `CCn1nc(C)cc1C(=O)Nc1nc2cc(C(N)=O)cc3c2n1C/C=C/Cn1c(NC(=O)c2cc(C)nn2CC)nc2cc(C(N)=O)cc(c21)OCC(N1CC[C@H](OC)C1)CO3` [Compound 6, (S,E)-1,15-bis(1-ethyl-3-methyl-1H-pyrazole-5-carboxamido)-8-(3-methoxypyrrolidin-1-yl)-8,9,16,19-tetrahydro-7H-6,10-dioxa-2,14,15a,19a-tetraazacyclopentadeca[3,2,1-cd:8,9,10-c′d′]diindene-4,12-dicarboxamide] it was 0.001 to 0.01 µM; in that of `CCn1nc(C)cc1C(=O)Nc1nc2cc(C(N)=O)cc3c2n1C/C=C/Cn1c(NC(=O)c2cc(C)nn2CC)nc2cc(C(N)=O)cc(c21)OCC(N1CC[C@@H](O)C1)CO3` [Compound 12, (R,E)-1,15-bis(1-ethyl-3-methyl-1H-pyrazole-5-carboxamido)-8-(3-hydroxypyrrolidin-1-yl)-8,9,16,19-tetrahydro-7H-6,10-dioxa-2,14,15a,19a-tetraazacyclopentadeca[3,2,1-cd:8,9,10-c′d′]diindene-4,12-dicarboxamide], 0.001 to 0.01 µM.
